{
  "source": "patent US6071709A",
  "about": "“Nerve growth factor/receptor complex” (The United States of America as represented by the …, priority 1992, dated 2000)",
  "key": {"gp140trk": {"system": "gp140trk", "experiment": "trk tyrosine phosphorylation in explanted embryonic dorsal root ganglia treated with NGF", "assay_type": "cell-based, mouse", "parameters": "dose or concentration left out as unconfirmed", "description": "FIGS. 4A-B show NGF-dependent tyrosine phosphorylation of gp140trk in the human neuroblastoma cell lines LA-N-5, SY5Y, and dorsal root ganglia from mouse embryos. FIG. 4A, gp140trk was immunoprecipitated from untreated (-) or NGF treated (+) LA-N-5 cells (K. H. Sonnenfeld and D. N. Ishii, J. Neurosci. Res. 8:375-391 (1982)), SY5Y cells (K. H. Sonnenfeld and D. N. Ishii, (1982)), NR18 cells (M. A. Bothwell et al., Cell 21:857-866 (1980)), or PC12 cells. Immunoprecipitates were probed with P-tyr antibodies. The differences in trk protein mobilities are due to differences in glycosylation. FIG. 4B, Tyrosine phosphorylation of gp140trk in DRGs from 13.5 day or 14.5 day embryonic mice. […] Tyrosine phosphorylated gp140trk from NGF-treated (+) PC12 cells or untreated (-) PC12 cells is shown for comparison. Samples were normalized for cell protein. Molecular weight markers in kDa are indicated.\nCell lines were treated with 100 ng/ml NGF for 5 min and gp140trk immunoprecipitated as in FIG. 1. DRGs were prepared by dissection for 13.5 or 14.5 day mouse embryos. 100 DRG's were treated with NGF, washed, and subjected to Dounce homogenization in 1% NP40 lysis buffer. Lysates were immunoprecipitated with trk antibody and the trk proteins were analyzed by antiphosphotyrosine immunoblots. […]"}, "p140^prototrk": {"system": "p140^prototrk", "sequence (P35739 148-395 limits assumed)": "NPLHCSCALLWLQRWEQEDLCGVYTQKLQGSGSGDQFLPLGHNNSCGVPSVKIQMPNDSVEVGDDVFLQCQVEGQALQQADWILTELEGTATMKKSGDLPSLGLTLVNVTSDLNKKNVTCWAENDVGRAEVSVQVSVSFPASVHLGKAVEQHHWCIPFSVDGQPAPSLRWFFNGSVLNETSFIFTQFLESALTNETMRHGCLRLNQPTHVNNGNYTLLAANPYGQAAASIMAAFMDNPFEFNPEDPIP", "experiment": "Affinity crosslinking of 125I-NGF to gp140trk with HSAB and immunoprecipitation", "assay_type": "binding, rat", "details": "0.5 nM 125I-NGF, 2 hr at 4° C., PC12 and rtrk-3T3 cells", "description": "FIG. 5 depicts the affinity crosslinking of NGF to gp140trk on PC12 cells and rtrk 3T3 cells. trk receptors were labeled by cross-linking of ^125 I-NGF to cultured cells using HSAB. The cell lines analyzed were PC12 cells (lanes 1-4), rtrk 3T3 cells (lanes 5-9), NIH-3T3 cells (lanes 10-11) and A875 human […] cells (lanes 13-15). Lysates from cells were immunoprecipitated with anti-NGF (lanes 1, 5, 9-14), gp140trk antibody 7-4 which is another trk antibody generated in bacteria against the gp70trk oncogene (7-4), (Martin-Zanca et al., (1989)) (lanes 2 and 6), or gp140trk antibody 43-4 in the absence (lanes […] and 15) or presence (lanes 4 and 8) of 10 μg/ml competing trk peptide. Crosslinking was performed in the presence of excess unlabeled NGF ([…]) in lanes 9, 11, and 14. The antibody 7-4 immunoprecipitates 3-5 fold less gp140 trk than does antibody 43-4. […]\n^125 I-NGF was prepared by lactoperoxidase treatment to specific activities of 2500-3500 cpm/fmole. […] After washing in 50 mM lysine in phosphate buffered saline, cells were lysed in buffer containing 1% NP40 and the lysates immunoprecipitated and analyzed on 7.5% SDS-PAGE as described (Kaplan et al., (1990)).\nTo determine if NGF was capable of binding to p140^prototrk, several cell lines were analyzed for the ability of trk-specific antisera to precipitate receptor-ligand complexes in affinity crosslinking experiments (FIG. 5). […]"}},
  "data": [
    {"substance": "NGF: neurotrophic polypeptide factor, nerve growth factor; ligand of trk proto-oncogene receptor", "values": [
      {"measurement": "phosphorylation of trk protein in 13.5 day DRG", "setting": "gp140trk; E13.5 mouse embryo DRG", "result": "not in two independent preparations"},
      {"measurement": "phosphorylation of trk protein in 14.5 day DRG", "setting": "gp140trk; E14.5 mouse embryo DRG", "result": "detectable"},
      {"measurement": "binding to p140^prototrk (160 kDa crosslinked species)", "setting": "p140^prototrk", "result": "binds"}
    ]}
  ]
}
